# ChEMBL document CHEMBL4219126, “Synthesis and biological evaluation of benzocyclobutane-C-glycosides as potent and orally active SGLT1/SGLT2 dual inhibitors” (Bioorg Med Chem Lett, 2018)
# Calls of active or inactive are those of the source. The calls are words filed in the database; no cut-off is given here.
# Assays:
# [1] = target: T1, Sodium/glucose cotransporter 1 (Homo sapiens) (UniProt P13866); test: Inhibition of human small intestinal SGLT1 expressed in CHOK1 cells assessed as decrease in [14C]-AMG uptake at 300 nM preincubated for 10 mins followed by [14C]-AMG addition and measured after 2 hrs by TopCount method relative to control; format: cell-based
# T1 sequence (whole entry): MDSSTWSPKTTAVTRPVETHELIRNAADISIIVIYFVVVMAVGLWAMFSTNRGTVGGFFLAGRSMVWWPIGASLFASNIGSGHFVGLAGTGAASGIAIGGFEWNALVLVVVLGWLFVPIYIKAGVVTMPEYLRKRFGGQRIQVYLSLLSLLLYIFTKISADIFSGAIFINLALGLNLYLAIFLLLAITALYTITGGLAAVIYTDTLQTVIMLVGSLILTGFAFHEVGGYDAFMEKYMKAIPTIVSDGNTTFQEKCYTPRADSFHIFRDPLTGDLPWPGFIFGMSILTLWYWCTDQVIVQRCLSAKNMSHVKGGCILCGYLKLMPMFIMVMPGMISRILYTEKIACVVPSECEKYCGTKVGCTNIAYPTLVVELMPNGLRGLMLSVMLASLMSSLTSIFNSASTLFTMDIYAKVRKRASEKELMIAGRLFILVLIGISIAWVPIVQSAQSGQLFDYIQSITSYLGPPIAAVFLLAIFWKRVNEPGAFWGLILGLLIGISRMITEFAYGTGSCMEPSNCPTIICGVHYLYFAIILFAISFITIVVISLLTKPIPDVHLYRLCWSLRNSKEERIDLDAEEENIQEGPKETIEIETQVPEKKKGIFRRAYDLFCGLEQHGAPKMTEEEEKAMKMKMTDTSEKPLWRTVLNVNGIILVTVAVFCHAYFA
# [2] = target: T2, Sodium/glucose cotransporter 2 (Homo sapiens) (UniProt P31639); test: Inhibition of human kidney SGLT2 expressed in CHOK1 cells assessed as decrease in [14C]-AMG uptake at 30 nM preincubated for 10 mins followed by [14C]-AMG addition and measured after 2 hrs by TopCount method relative to control; format: cell-based
# T2 sequence (whole entry): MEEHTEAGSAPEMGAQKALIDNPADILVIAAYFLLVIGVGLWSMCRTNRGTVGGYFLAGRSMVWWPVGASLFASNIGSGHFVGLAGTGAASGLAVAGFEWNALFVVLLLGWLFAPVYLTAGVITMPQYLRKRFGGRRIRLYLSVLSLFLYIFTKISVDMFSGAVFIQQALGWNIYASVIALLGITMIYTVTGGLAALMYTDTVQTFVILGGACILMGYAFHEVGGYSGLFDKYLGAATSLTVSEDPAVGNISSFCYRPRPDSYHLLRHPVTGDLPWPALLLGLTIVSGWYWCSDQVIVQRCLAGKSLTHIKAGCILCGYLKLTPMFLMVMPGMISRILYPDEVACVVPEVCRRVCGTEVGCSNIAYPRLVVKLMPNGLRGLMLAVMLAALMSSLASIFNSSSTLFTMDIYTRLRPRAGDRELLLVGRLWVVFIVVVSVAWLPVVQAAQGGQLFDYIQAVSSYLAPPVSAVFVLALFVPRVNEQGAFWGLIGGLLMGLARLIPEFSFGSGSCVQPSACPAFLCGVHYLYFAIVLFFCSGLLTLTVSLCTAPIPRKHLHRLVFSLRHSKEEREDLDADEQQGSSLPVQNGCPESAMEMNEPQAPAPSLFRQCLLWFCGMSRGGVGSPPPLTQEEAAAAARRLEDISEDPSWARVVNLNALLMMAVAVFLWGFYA
# [3] = Cmax in mouse at 5 mg/kg, iv; format: ADME, organism-based; design: dose 5 mg/kg, route intravenous; settings: in vivo
# [4] = Cmax in mouse at 20 mg/kg administered via oral gavage; format: ADME, organism-based; design: dose 20 mg/kg, route oral; settings: in vivo
# [5] = Terminal half life in mouse at 5 mg/kg, iv; format: ADME, organism-based; settings: in vivo, read-out: beta t1/2 (converted)
# [6] = Terminal half life in mouse at 20 mg/kg administered via oral gavage; format: ADME, organism-based; settings: in vivo, read-out: beta t1/2 (converted)
# [7] = AUC (infinity) in mouse at 5 mg/kg, iv; format: ADME, organism-based; design: dose 5 mg/kg, time infinity, route intravenous; settings: in vivo
# [8] = AUC (infinity) in mouse at 20 mg/kg administered via oral gavage; format: ADME, organism-based; design: dose 20 mg/kg, route oral, time infinity; settings: in vivo
# [9] = Volume of distribution at steady state in mouse at 5 mg/kg, iv; format: ADME, organism-based; settings: in vivo, read-out: Vdss
# [10] = Systemic clearance in mouse at 5 mg/kg, iv; format: ADME, organism-based; settings: in vivo
# [11] = Oral bioavailability in mouse at 20 mg/kg; format: ADME, organism-based; settings: in vivo
# [12] = Cmax in rat at 2 mg/kg, iv; format: ADME, organism-based; design: dose 2 mg/kg, route intravenous; settings: in vivo
# [13] = Cmax in rat at 10 mg/kg administered via oral gavage; format: ADME, organism-based; design: dose 10 mg/kg, route oral; settings: in vivo
# [14] = Terminal half life in rat at 2 mg/kg, iv; format: ADME, organism-based; settings: in vivo, read-out: beta t1/2 (converted)
# [15] = Terminal half life in rat at 10 mg/kg administered via oral gavage; format: ADME, organism-based; settings: in vivo, read-out: beta t1/2 (converted)
# [16] = AUC (infinity) in rat at 2 mg/kg, iv; format: ADME, organism-based; design: dose 2 mg/kg, time infinity, route intravenous; settings: in vivo
# [17] = AUC (infinity) in rat at 10 mg/kg administered via oral gavage; format: ADME, organism-based; design: dose 10 mg/kg, route oral, time infinity; settings: in vivo
# [18] = Volume of distribution at steady state in rat at 2 mg/kg, iv; format: ADME, organism-based; settings: in vivo, read-out: Vdss
# [19] = Systemic clearance in rat at 2 mg/kg, iv; format: ADME, organism-based; settings: in vivo
# [20] = Oral bioavailability in rat at 10 mg/kg; format: ADME, organism-based; settings: in vivo
# Rattus norvegicus [21] = test: Antidiabetic activity in Sprague-Dawley rat assessed as decrease in plasma glucose AUC (0 to 120 mins) administered 1 hr prior to U13C6-glucose challenge by OGTT; format: functional, organism-based
# Rattus norvegicus [22] = test: Antidiabetic activity in Sprague-Dawley rat assessed as increase in urinary glucose excrection administered 1 hr prior to U13C6-glucose challenge measured up to 4 hrs by OGTT; format: functional, organism-based
# [23] = Cmax in dog at 2 mg/kg, iv; format: ADME, organism-based, Canis lupus familiaris; design: dose 2 mg/kg, route intravenous; settings: in vivo
# [24] = Cmax in dog at 10 mg/kg administered via oral gavage; format: ADME, organism-based, Canis lupus familiaris; design: dose 10 mg/kg, route oral; settings: in vivo
# [25] = Terminal half life in dog at 2 mg/kg, iv; format: ADME, organism-based, Canis lupus familiaris; settings: in vivo, read-out: beta t1/2 (converted)
# [26] = Terminal half life in dog at 10 mg/kg administered via oral gavage; format: ADME, organism-based, Canis lupus familiaris; settings: in vivo, read-out: beta t1/2 (converted)
# [27] = AUC (infinity) in dog at 2 mg/kg, iv; format: ADME, organism-based, Canis lupus familiaris; design: dose 2 mg/kg, time infinity, route intravenous; settings: in vivo
# [28] = AUC (infinity) in dog at 10 mg/kg administered via oral gavage; format: ADME, organism-based, Canis lupus familiaris; design: dose 10 mg/kg, route oral, time infinity; settings: in vivo
# [29] = Volume of distribution at steady state in dog at 2 mg/kg, iv; format: ADME, organism-based, Canis lupus familiaris; settings: in vivo, read-out: Vdss
# [30] = Systemic clearance in dog at 2 mg/kg, iv; format: ADME, organism-based, Canis lupus familiaris; settings: in vivo
# [31] = Oral bioavailability in dog at 10 mg/kg; format: ADME, organism-based, Canis lupus familiaris; settings: in vivo
# [32] = Cmax in monkey at 2 mg/kg, iv; format: ADME, organism-based, Macaca mulatta; design: dose 2 mg/kg, route intravenous; settings: rhesus monkey, in vivo
# [33] = Cmax in monkey at 10 mg/kg administered via oral gavage; format: ADME, organism-based, Macaca mulatta; design: dose 10 mg/kg, route oral; settings: rhesus monkey, in vivo
# [34] = Terminal half life in monkey at 2 mg/kg, iv; format: ADME, organism-based, Macaca mulatta; settings: rhesus monkey, in vivo, read-out: beta t1/2 (converted)
# [35] = Terminal half life in monkey at 10 mg/kg administered via oral gavage; format: ADME, organism-based, Macaca mulatta; settings: rhesus monkey, in vivo, read-out: beta t1/2 (converted)
# [36] = AUC (infinity) in monkey at 2 mg/kg, iv; format: ADME, organism-based, Macaca mulatta; design: dose 2 mg/kg, route intravenous, time infinity; settings: rhesus monkey, in vivo
# [37] = AUC (infinity) in monkey at 10 mg/kg administered via oral gavage; format: ADME, organism-based, Macaca mulatta; design: dose 10 mg/kg, time infinity, route oral; settings: rhesus monkey, in vivo
# [38] = Volume of distribution at steady state in monkey at 2 mg/kg, iv; format: ADME, organism-based, Macaca mulatta; settings: rhesus monkey, in vivo, read-out: Vdss
# [39] = Systemic clearance in monkey at 2 mg/kg, iv; format: ADME, organism-based, Macaca mulatta; settings: rhesus monkey, in vivo
# [40] = Oral bioavailability in monkey at 10 mg/kg; format: ADME, organism-based, Macaca mulatta; settings: rhesus monkey, in vivo
# Rattus norvegicus [41] = test: Antidiabetic activity in Sprague-Dawley rat assessed as decrease in postprandial blood glucose level administered 1 hr prior to glucose challenge measured up to 120 mins by OGTT; format: functional, organism-based
# Rattus norvegicus [42] = test: Antihyperglycemic activity in diabetic ZDF rat assessed as decrease in fed blood glucose levels at 10 mg/kg measured up to 24 hrs; format: functional, organism-based
Structure (SMILES),inhibition [1] [%],inhibition [2] [%],Cmax [3] [ng/mL],Cmax [4] [ng/mL],half-life [5] [min],half-life [6] [min],AUC(0-inf) [7] [ng·h/mL],AUC(0-inf) [8] [ng·h/mL],Vd [9] [L/kg],clearance [10] [mL/min/kg],bioavailability [11] [%],Cmax [12] [ng/mL],Cmax [13] [ng/mL],half-life [14] [min],half-life [15] [min],AUC(0-inf) [16] [ng·h/mL],AUC(0-inf) [17] [ng·h/mL],Vd [18] [L/kg],clearance [19] [mL/min/kg],bioavailability [20] [%],also measured
N#Cc1ccc([C@@H]2O[C@H](CO)[C@@H](O)[C@H](O)[C@H]2O)cc1Cc1ccc2c(c1)CC2,0,43,–,–,–,–,–,–,–,–,–,–,–,–,–,–,–,–,–,–,–
OC[C@H]1O[C@@H](c2cccc(Cc3ccc4c(c3)CC4)c2)[C@H](O)[C@@H](O)[C@@H]1O,5,23,–,–,–,–,–,–,–,–,–,–,–,–,–,–,–,–,–,–,–
Cc1cc(O)c([C@@H]2O[C@H](CO)[C@@H](O)[C@H](O)[C@H]2O)cc1Cc1ccc2c(c1)CC2,–,–,8200,4760,75,161,4560,11500,1.06,18.3,62.8,2110,717,76.2,133,697,1790,2.18,47.8,49,Activity (Rattus norvegicus [21]): Dose-dependent effect; Activity (Rattus norvegicus [22]): Dose-dependent effect
CN(C)c1ccc([C@@H]2O[C@H](CO)[C@@H](O)[C@H](O)[C@H]2O)cc1Cc1ccc2c(c1)CC2,67,35,–,–,–,–,–,–,–,–,–,–,–,–,–,–,–,–,–,–,–
COc1cc(C2CC2)c(Cc2ccc3c(c2)CC3)cc1[C@@H]1O[C@H](CO)[C@@H](O)[C@H](O)[C@H]1O,67,31,–,–,–,–,–,–,–,–,–,–,–,–,–,–,–,–,–,–,–
OC[C@H]1O[C@@H](c2ccc(Cl)c(Cc3ccc4c(c3)CC4)c2)[C@H](O)[C@@H](O)[C@@H]1O,–,–,5870,5680,145,197,6390,25500,2.19,13,99,1110,634,130,149,697,2650,4.01,48.3,78,Cmax [23]: 9600 ng/mL; Cmax [24]: 20100 ng/mL; half-life [25]: 476 min; half-life [26]: 768 min; AUC(0-inf) [27]: 50800 ng·h/mL; AUC(0-inf) [28]: 332 µg·h/mL; Vd [29]: 0.4 L/kg; clearance [30]: 0.68 mL/min/kg; bioavailability [31]: 107%; Cmax [32]: 9110 ng/mL; Cmax [33]: 7180 ng/mL; half-life [34]: 283 min; half-life [35]: 267 min; AUC(0-inf) [36]: 9210 ng·h/mL; AUC(0-inf) [37]: 40500 ng·h/mL; Vd [38]: 0.91 L/kg; clearance [39]: 3.74 mL/min/kg; bioavailability [40]: 88%; Activity (Rattus norvegicus [41]): Active; Activity (Rattus norvegicus [42]): Active
